From patent publication US11344510B2, “Arylcyclohexylamine derivatives and their use in the treatment of psychiatric disorders” (Gilgamesh Pharmaceuticals, Inc., priority 2019, dated 2022) come the findings set out here.

One may read the inhibition as the relative decrease from the control value, in per cent. The term half-life denotes the time in which the quantity being followed falls by half. A higher half-life goes with slow decline. In general, microsomal CLint refers to a measure of how fast metabolising enzymes remove a compound, apart from limits set by blood flow. As usually defined, the Ki is a dissociation constant, usually derived from enzyme kinetics or from competition with a known ligand.

The target in series [1] is T1, serotonin transporter (SERT) (Homo sapiens, UniProt P31645).
T1 construct: expressed in transfected cells; host or cells: HEK293
The experiment in a line: Fluorescent substrate uptake inhibition, SERT. Format: cell-based. Particulars: 10 μM, HEK293 cells expressing SERT. The protocol: (§1) Uptake Inhibition. The ability of test compounds to block monoamine uptake by SERT, NET, DAT, and VMAT2 was determined using the Neurotransmitter Transporter Uptake Assay Kit manufactured by Molecular Devices (Cat #R8173). Briefly, stably transfected cells expressing the MAT of interest (HEK293 cells for SERT and NET; CHO cells for DAT) were grown and plated into 384-well plates at a concentration of 20,000 cells per well. Plates were then incubated for 16-20 h at 37° C. and 5% CO2. The medium was then aspirated and replaced with 25 μL of assay buffer (20 mM HEPES in HBSS, containing 0.1% BSA) containing the test compounds at the appropriate concentrations. Plates were then centrifuged at 300 rpm for 15 s and then incubated at 37° C. for 30 minutes. At this time, 25 μL of the proprietary fluorescent dye solution was added, the plates were incubated at 37° C. for 60 minutes, and then fluorescence was quantified on a plate reader (excitation wavelength=440 nm, emission wavelength=520 nm). The proprietary dye solution contains a mixture of 1) a fluorescent dye that mimics the endogenous substrates of MATs and is thereby actively transported to the intracellular compartment in the absence of an inhibitor and 2) a masking dye that inhibits the fluorescence of dye 1 in the extracellular compartment. Therefore, the overall fluorescence of the system increases as the fluorescent dye is transported into the cells.

The nature of series [2]: MLM stability (Low Activity). Type of series: in vitro ADME, CD-1 mice. As to conditions: male, CD-1, mouse, liver microsomes, pH 7.4, Condition 1 (Low Activity), 0.50 mg protein/mL. The method, then: (§2) MLM Stability (Low Activity). Pooled MLM from male CD-1 mice (XenoTech M1000) were used. Microsomal incubations were carried out in multi-well plates. Liver microsomal incubation medium consisted of PBS (100 mM, pH 7.4), MgCl2 (1 mM), and NADPH (1 mM), with 0.50 mg of liver microsomal protein per mL. Control incubations were performed by replacing the NADPH-cofactor system with PBS. Test compounds (1 μM, final solvent concentration 1.0%) were incubated with microsomes at 37° C. with constant shaking. Six time points over 60 minutes were analyzed, with 60 μL aliquots of the reaction mixture being drawn at each time point. The reaction aliquots were stopped by adding 180 μL of cold (4° C.) acetonitrile containing 200 ng/mL tolbutamide and 200 ng/mL labetalol as internal standards (IS), followed by shaking for 10 minutes, and then protein sedimentation by centrifugation at 4000 rpm for 20 minutes at 4° C. Supernatant samples (80 μL) were diluted with water (240 μL) and analyzed for parent compound remaining using a fit-for-purpose liquid chromatography-tandem mass spectrometry (LC-MS/MS) method.
(§3) Data Analysis. The elimination constant (kel), half-life (t1/2) and intrinsic clearance (Clint) were determined in a plot of […] versus time, using linear regression analysis.
(In general: Microsomes from liver hold many membrane-bound enzymes, among them those of drug oxidation.)

Series [3] concerns the target MK-801 binding site of the N-methyl-D-aspartate receptor (NMDAR). The experiment in a line: NMDAR radioligand binding with [3H]MK-801, Method B. Particulars: MK-801 site, Method B, male Sprague Dawley rat cortex, 5.0 nM [3H]MK-801; read-out: NMDAR Ki ± SEM. Set-up: species or system Sprague Dawley rat. The method, then: Radioligand Binding—Method B. Affinity of the test compounds for NMDAR was determined in radioligand binding experiments with [^3H]MK-801 by WuXi AppTec (Hong Kong) Limited, under the conditions described in Table 13.

For series [4], the target named is T2, vesicular monoamine transporter 2 (VMAT2) (Homo sapiens, UniProt Q05940).
T2 construct: expressed in transfected cells
The experiment in a line: Fluorescent substrate uptake inhibition, VMAT2. Format: cell-based. Particulars: 10 μM, transfected cells. The protocol:
as §1

Series [5] has as its target T3, norepinephrine transporter (NET) (Homo sapiens, UniProt P23975).
T3 construct: expressed in transfected cells; host or cells: HEK293
Kind of series: Fluorescent substrate uptake inhibition, NET. Type of series: cell-based. As to conditions: 10 μM, HEK293 cells expressing NET. The method, then:
as §1

In series [6] the target is T4, dopamine transporter (DAT) (Homo sapiens, UniProt Q01959).
T4 construct: expressed in transfected cells; host or cells: CHO (uptake)
The experiment in a line: Fluorescent substrate uptake inhibition, DAT. Format: cell-based. Particulars: 10 μM, CHO cells expressing DAT. The method, then: as §1

Series [7] can be described thus: HLM stability (Low Activity, Alternative Method). As to conditions: both sexes, human, liver microsomes, pH 7.4, Condition 1 column, values marked *: Low Activity, 0.50 mg protein/mL. Type of series: in vitro ADME. The protocol: as §2, with “HLM” for “MLM”, “Activity, Alternative Method).” for “Activity).”, “from adult” for “from”, “and female donors (Corning 452117)” for “CD-1 mice (XenoTech M1000)”
as §3

Series [8] is described as follows: RLM stability (Low Activity). Type of series: in vitro ADME, Sprague Dawley rats. As to conditions: male, Sprague Dawley, rat, liver microsomes, pH 7.4, Condition 1 (Low Activity), 0.50 mg protein/mL. The protocol:
as §2, with “RLM” for “MLM”, “Sprague Dawley rats” for “CD-1 mice”, “R1000)” for “M1000)”
as §3

Series [9] is described as follows: HLM stability (High Activity). Type of series: in vitro ADME. Particulars: both sexes, human, liver microsomes, pH 7.4, Condition 2 (High Activity), 1.0 mg protein/mL. The protocol: (§4) HLM Stability (High Activity). Pooled HLM from adult male and female donors (XenoTech H0630) were used. Microsomal incubations were carried out in 96-well plates in 5 aliquots of 40 μL, each (one for each time point). Liver microsomal incubation medium consisted of PBS (100 mM, pH 7.4), MgCl2 (3.3 mM), NADPH (3 mM), glucose-6-phosphate (5.3 mM), and glucose-6-phosphate dehydrogenase (0.67 units/mL), with 1.0 mg of liver microsomal protein per mL. Control incubations were performed by replacing the NADPH-cofactor system with PBS. Test compounds (1 μM, final solvent concentration 1.6%) were incubated with microsomes at 37° C., shaking at 100 rpm. Incubations were performed in duplicate. Five time points over 60 minutes were analyzed. The reactions were stopped by adding 12 volumes of 90% acetonitrile-water to incubation aliquots, followed by protein sedimentation by centrifugation at 5500 rpm for 3 minutes. Supernatants were analyzed for parent compound remaining using a fit-for-purpose liquid chromatography-tandem mass spectrometry (LC-MS/MS) method, with authentic samples of each analyte used for identity confirmation.
as §3

Series [10] in a line: MLM stability (High Activity). Type of series: in vitro ADME, BALB/c mice. As to conditions: male, BALB/c, mouse, liver microsomes, pH 7.4, Condition 2 (High Activity), 1.0 mg protein/mL. The protocol:
as §4, with “MLM” for “HLM”, “from” for “from adult”, “BALB/c mice” for “and female donors”, “M3000)” for “H0630)”, “μL” for “μL,”, “9” for “12”
as §3

T1 sequence (P31645 whole entry, species assumed): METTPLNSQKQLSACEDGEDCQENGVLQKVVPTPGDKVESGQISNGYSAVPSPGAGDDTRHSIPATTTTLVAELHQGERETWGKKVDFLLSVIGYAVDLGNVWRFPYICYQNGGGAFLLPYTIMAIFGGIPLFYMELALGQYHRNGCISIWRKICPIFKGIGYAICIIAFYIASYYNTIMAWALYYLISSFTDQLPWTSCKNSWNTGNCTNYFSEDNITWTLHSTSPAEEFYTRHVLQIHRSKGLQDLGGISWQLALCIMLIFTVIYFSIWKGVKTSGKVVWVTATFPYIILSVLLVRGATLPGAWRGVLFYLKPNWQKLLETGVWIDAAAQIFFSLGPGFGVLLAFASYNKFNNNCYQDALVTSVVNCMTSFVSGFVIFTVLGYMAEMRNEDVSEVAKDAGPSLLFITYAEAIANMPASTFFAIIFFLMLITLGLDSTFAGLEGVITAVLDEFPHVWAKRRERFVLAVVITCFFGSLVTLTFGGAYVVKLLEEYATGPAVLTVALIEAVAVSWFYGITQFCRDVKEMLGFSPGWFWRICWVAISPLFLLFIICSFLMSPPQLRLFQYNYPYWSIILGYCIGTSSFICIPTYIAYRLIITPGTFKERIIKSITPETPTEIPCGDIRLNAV
T3 sequence (P23975 whole entry, species assumed): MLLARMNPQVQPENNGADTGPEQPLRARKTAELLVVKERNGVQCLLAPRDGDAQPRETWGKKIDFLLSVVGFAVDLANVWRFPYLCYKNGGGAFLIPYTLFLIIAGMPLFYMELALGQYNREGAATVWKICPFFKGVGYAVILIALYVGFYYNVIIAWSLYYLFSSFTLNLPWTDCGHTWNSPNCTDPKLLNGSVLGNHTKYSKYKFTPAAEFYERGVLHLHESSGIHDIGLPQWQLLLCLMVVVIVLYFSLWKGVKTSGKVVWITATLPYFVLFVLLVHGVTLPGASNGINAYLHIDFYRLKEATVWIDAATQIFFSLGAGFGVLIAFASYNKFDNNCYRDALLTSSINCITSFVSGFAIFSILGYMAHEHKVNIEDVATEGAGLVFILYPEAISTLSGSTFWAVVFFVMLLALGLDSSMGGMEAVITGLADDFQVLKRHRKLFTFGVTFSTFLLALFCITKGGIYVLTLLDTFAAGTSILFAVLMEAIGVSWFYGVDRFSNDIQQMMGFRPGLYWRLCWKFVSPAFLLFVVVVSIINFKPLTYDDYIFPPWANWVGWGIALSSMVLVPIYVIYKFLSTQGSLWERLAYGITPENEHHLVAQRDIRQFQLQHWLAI
T4 sequence (Q01959 whole entry, species assumed): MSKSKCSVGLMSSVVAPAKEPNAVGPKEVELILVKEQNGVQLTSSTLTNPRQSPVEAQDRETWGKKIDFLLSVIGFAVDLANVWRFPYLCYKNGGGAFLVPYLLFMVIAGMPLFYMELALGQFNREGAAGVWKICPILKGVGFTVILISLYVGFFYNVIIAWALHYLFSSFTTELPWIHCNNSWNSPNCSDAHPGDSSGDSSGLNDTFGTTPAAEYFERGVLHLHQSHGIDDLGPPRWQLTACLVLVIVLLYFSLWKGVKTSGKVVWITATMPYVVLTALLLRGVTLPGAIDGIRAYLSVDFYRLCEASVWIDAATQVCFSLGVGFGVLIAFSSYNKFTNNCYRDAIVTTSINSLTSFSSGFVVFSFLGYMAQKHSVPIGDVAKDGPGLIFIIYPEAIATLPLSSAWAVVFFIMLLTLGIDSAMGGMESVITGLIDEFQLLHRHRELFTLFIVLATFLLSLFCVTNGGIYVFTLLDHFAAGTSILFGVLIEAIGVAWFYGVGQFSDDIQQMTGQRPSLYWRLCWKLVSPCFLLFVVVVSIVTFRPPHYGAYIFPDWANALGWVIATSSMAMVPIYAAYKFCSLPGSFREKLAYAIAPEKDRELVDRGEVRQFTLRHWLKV
T2 sequence (Q05940 whole entry, species assumed): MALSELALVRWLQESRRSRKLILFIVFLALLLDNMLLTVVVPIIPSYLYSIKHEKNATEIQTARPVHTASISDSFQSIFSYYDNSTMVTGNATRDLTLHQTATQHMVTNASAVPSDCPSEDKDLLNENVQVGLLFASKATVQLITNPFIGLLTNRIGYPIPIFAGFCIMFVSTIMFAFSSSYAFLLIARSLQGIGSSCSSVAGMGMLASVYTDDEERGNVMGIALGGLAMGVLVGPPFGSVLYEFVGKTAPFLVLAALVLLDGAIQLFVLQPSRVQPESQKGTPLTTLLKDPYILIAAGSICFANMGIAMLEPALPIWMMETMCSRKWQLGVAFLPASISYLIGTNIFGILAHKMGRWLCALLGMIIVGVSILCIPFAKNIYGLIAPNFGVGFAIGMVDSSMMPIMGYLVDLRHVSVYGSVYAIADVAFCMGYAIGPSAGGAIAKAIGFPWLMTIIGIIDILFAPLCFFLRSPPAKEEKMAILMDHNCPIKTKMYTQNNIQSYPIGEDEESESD

`CNC1(c2cccc(C)c2)CCCCC1=O` (racemic) [Compound 23rac, 2-(methylamino)-2-(m-tolyl)cyclohexan-1-one]: the inhibition at 10 µM in [1] is -1%; in series [4], 16%; in [5] it was 8%; in series [6] it was 8.5%. Moreover, the half-life at 1 μM in [2] stood at 52.7 min; in series [7] it was 133 min; in series [8] it was 3.6 min. For the same compound, the microsomal CLint at 1 μM in series [2] came to 26.3 µL/min/mg; in series [7], 10.4 µL/min/mg; in series [8] it was 390 µL/min/mg. Further, in series [3], the Ki amounted to 4.6 µM.

For the compound `O=C1CCCC[C@@]1(NCCO)c1ccccc1` [Compound 30R, (R)-2-((2-hydroxyethyl)amino)-2-phenylcyclohexan-1-one], the inhibition at 10 µM stood at 1.2% in [1], 16.3% in series [4], 3.5% in series [5] and 8.5% in [6]. For the same compound, the half-life at 1 μM in series [9] was determined as 23 min; in series [10], 6.5 min. In addition, the intrinsic clearance (microsomal CLint) at 1 μM worked out at 30 µL/min/mg in series [9] and 106 µL/min/mg in [10]. The Ki in [3] was greater than 23 µM.

For the compound `O=C1CCCC[C@]1(NCCO)c1ccccc1` [Compound 30S, (S)-2-((2-hydroxyethyl)amino)-2-phenylcyclohexan-1-one], the inhibition at 10 µM in series [1] is 51.9%; in [4], 23.2%; in series [5] it was 22.3%; in series [6] it was 18.7%. In addition, the half-life at 1 μM in series [9] came out at 11.4 min; in series [10] it was 4.3 min. Moreover, the microsomal CLint at 1 μM in series [9] worked out at 61 µL/min/mg; in [10] it was 162 µL/min/mg. Besides, the Ki in series [3] is 23 µM.

`CN[C@@]1(c2ccccc2C)CCCCC1=O` [Compound 38R, (R)-2-(methylamino)-2-(o-tolyl)cyclohexan-1-one]: the inhibition at 10 µM in series [1] is 41.5%; in [4], 2.9%; in series [5], 20.3%; in [6], -2.2%. In addition, the half-life at 1 μM in series [9] was 111 min; in [10], 30 min. Further, the intrinsic clearance (microsomal CLint) at 1 μM in series [9] was 6 µL/min/mg; in series [10], 23 µL/min/mg. Moreover, the Ki in [3] is 0.74 µM.

`CN[C@]1(c2ccccc2C)CCCCC1=O` [Compound 38S, (S)-2-(methylamino)-2-(o-tolyl)cyclohexan-1-one]: the inhibition at 10 µM in [1] was 39.7%; in series [4] it was -11.2%; in [5], 2.7%; in series [6], 8.3%. Also, the values for the half-life at 1 μM in series [9] and in series [10] were 110 min and 22.4 min, respectively. The microsomal CLint at 1 μM in [9] is 6 µL/min/mg; in series [10], 31 µL/min/mg. Besides, the Ki in series [3] is 0.24 µM.

Take `O=C1CCCC[C@@]1(NCCF)c1ccccc1` [Compound 86R, (R)-2-((2-fluoroethyl)amino)-2-phenylcyclohexan-1-one]: the inhibition at 10 µM in [1] was 7.1%; in series [4] it was -8.9%; in series [5] it was 11.4%; in series [6], 13.6%. Moreover, the half-life at 1 μM in series [9] is 55.8 min; in series [10] it was 6.2 min. Besides, the microsomal CLint at 1 μM in series [9] was determined as 12 µL/min/mg; in [10] it was 113 µL/min/mg. In addition, in series [3], the Ki worked out at 7.1 µM.

Regarding `O=C1CCCC[C@]1(NCCF)c1ccccc1` [Compound 86S, (S)-2-((2-fluoroethyl)amino)-2-phenylcyclohexan-1-one], the inhibition at 10 µM in [1] is 14.1%; in series [4], -5.5%; in series [5], 12.2%; in series [6], 20.8%. Besides, the results for the half-life at 1 μM in [9] and in series [10] were 61.9 min and 8.5 min, respectively. Moreover, the microsomal CLint at 1 μM was determined as 11 µL/min/mg in series [9] and 82 µL/min/mg in [10]. Moreover, the Ki in series [3] was 1.3 µM.
